Where two headings read alike, the source gives them in different places.
Columns and labels:
[1] = target: T1, human A2B adenosine receptor (Homo sapiens, UniProt P29275); test: [3H]DPCPX binding to human A2B receptors expressed in HEK293 cells; parameters: host or cells: HEK 293 cells (membranes)
T1 sequence (P29275 1-332): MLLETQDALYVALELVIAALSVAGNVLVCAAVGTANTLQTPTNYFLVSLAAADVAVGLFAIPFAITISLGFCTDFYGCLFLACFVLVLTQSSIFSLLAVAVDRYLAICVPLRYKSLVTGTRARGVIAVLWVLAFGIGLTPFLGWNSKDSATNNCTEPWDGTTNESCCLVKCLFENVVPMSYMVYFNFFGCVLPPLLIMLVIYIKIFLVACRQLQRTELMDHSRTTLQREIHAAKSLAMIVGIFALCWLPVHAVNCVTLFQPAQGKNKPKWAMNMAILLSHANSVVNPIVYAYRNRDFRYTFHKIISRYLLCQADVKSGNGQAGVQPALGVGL
Outline: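 Membranes (20 μg protein) from HEK293 cells expressing recombinant human A2B receptor were incubated 60 min at 25° C with 40 nM [3H]-DPCPX and 6–8 compound concentrations. Buffer was Tris-HCl with MgCl2, 1 mM EDTA, 0.1 mM benzamidine and 2 IU/ml adenosine deaminase, pH 7.4. Filter-bound radioactivity gave the inhibitory binding constant.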

[2] = target: T1, human A2B adenosine receptor; test: Cyclic AMP assay, antagonism of NECA-stimulated cAMP in CHO cells transfected with human A2B receptors; type: cell-based; details: inhibition of NECA (100 nM)-stimulated cAMP; geometric mean (95% confidence limits)
Protocol: Measurement of cyclic AMP (CAMP) levels in CHO cells transfected with human A2B adenosine receptors was performed in the following manner. CHO cells transfected with human A2B adenosine receptors were washed with phosphate-buffered saline, diluted tripsine and centrifuged for 10 minutes at 200 g.
The reaction was terminated by the addition of cold 6% thrichloroacetic acid (TCA). The TCA suspension was centrifuged at 2000 g for 10 minutes at 4° C. and the supernatant was extracted four times with water saturated diethyl ether. The final aqueous, solution was tested for cAMP levels by a competition protein binding assay. Samples of cAMP standard (0–10 pmoles) were added to each test tube containing the incubation buffer (trizma base 0.1 M, aminophylline 8.0 mM, 2-mercaptoethanol 6.0 mM, pH 7.4) and [H^3]-cAMP in a total volume of 0.5 ml. The binding protein previously prepared from beef adrenals, was added to the samples previously incubated at 4° C. for 150 minutes, and after the addition of charcoal were centrifuged at 2000 g for 10 minutes. The clear supernatant was counted in a Beckman scintillation counter.
Finally, to evaluate the regulation of adenylyl cyclase activity and to test whether the binding parameters correlated with the functional response, the IC50 values were obtained for inhibition of cAMP production by antagonists. In particular, we evaluated the capability of the several compounds to inhibit NECA (100 nM)-stimulated cyclic AMP accumulation.

[3] = target: T2, human A2A adenosine receptor (Homo sapiens, UniProt P29274); test: [3H]ZM241385 binding to human A2A receptors expressed in CHO cells; details: read-out: Ki, [3H]ZM241385 binding to human A2A receptors expressed in CHO cells
T2 construct: expressed in transfected cells; host or cells: CHO cells (membranes)
Outline: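 Membranes from adherent CHO cells, resuspended in 50 mM Tris HCl with 10 mM MgCl2, pH 7.4. The inhibitory binding constant is reported.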

[4] = target: T3, human A3 adenosine receptor (Homo sapiens, UniProt P0DMS8); test: [3H]MRE3008F20 binding to human A3 receptors expressed in CHO cells
T3 construct: expressed in transfected cells; host or cells: CHO cells (membranes)
T3 sequence (P0DMS8 1-318): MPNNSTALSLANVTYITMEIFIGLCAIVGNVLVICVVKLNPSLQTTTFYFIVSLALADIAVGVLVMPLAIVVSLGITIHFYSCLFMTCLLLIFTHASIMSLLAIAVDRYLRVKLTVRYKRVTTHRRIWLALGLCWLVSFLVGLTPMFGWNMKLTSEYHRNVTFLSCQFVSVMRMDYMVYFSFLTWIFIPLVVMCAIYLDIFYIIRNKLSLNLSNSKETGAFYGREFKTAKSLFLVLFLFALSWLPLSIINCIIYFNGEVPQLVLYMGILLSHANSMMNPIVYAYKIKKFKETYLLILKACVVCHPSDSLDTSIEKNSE
Outline: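 CHO cell membranes (50 μg protein) competed against 1 nM [3H]-MRE3008-F20 in 50 mM Tris HCl, MgCl2, pH 7.4, with 6–8 ligand concentrations in duplicate, 120 minutes at 4° C. Filter-bound radioactivity counted by scintillation; inhibitory binding constants derived.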

[5] = target: T4, human A1 adenosine receptor (Homo sapiens, UniProt P30542); test: [3H]DPCPX binding to human A1 receptors expressed in CHO cells; details: geometric mean (95% confidence interval); >1000 = no appreciable binding
T4 construct: expressed in transfected cells; host or cells: CHO cells (membranes)
T4 sequence (P30542 1-326): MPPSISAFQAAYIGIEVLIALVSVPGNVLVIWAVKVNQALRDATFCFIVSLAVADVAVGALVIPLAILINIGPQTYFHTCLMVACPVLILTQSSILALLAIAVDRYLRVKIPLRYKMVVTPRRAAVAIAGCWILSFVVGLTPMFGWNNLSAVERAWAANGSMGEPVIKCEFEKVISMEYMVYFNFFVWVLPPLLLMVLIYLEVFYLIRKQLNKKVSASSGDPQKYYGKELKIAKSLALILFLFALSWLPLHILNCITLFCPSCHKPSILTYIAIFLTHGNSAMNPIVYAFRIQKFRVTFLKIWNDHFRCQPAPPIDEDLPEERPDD

[6] = Table 2, geometric mean (95% confidence limits), at least three experiments in duplicate, read-out: [3H]-DPCPX binding to human A2B receptors in HEK 293 cells Ki
[7] = geometric mean (95% confidence interval), >1000 = no appreciable binding, read-out: Ki, [3H]DPCPX binding to human A2B receptors expressed in HEK293 cells

T2 sequence (P29274 whole entry): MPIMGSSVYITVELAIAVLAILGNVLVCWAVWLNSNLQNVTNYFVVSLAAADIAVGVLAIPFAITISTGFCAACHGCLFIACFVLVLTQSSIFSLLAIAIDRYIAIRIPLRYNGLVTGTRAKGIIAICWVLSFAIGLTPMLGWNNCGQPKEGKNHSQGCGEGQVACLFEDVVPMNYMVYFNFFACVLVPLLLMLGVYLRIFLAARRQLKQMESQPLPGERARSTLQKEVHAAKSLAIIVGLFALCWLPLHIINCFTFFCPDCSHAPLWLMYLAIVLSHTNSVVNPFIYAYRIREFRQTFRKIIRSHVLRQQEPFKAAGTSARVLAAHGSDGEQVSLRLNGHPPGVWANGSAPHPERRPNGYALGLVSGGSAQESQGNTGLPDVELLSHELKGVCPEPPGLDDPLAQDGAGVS

SMILES	Ki [1, 6]	Ki [1, 7]	IC50 [2]	Ki [3]	Ki [4]	Ki [5]
CCCn1c(=O)c2[nH]c(-c3cc(NC(=O)Cc4ccccc4)nn3C)nc2n(CCC)c1=O [AS11, N-[5-(2,6-dioxo-1,3-dipropyl-2,3,6,9-tetrahydro-1H-purin-8-yl)-1-methyl-1H-pyrazol-3-yl]-2-phenylacetamide]	35 nM	35 nM	103 nM	> 1000 nM	> 1000 nM	900 nM
CCCn1c(=O)c2[nH]c(-c3cc(NC(=O)Cc4ccc(Cl)cc4)nn3C)nc2n(CCC)c1=O [AS27, N-[5-(2,6-dioxo-1,3-dipropyl-2,3,6,9-tetrahydro-1H-purin-8-yl)-1-methyl-1H-pyrazol-3-yl]-2-(4-chlorophenyl)acetamide]	28 nM	28 nM	128 nM	> 1000 nM	> 1000 nM	520 nM
CCCn1c(=O)c2[nH]c(-c3cc(OCC(=O)Nc4ccc(Br)cc4)nn3C)nc2n(CCC)c1=O [AS65, 2-{[5-(2,6-dioxo-1,3-dipropyl-2,3,6,9-tetrahydro-1H-purin-8-yl)-1-methyl-1H-pyrazol-3-yl]oxy}-N-(4-bromophenyl)acetamide]	20 nM	20 nM	108 nM	> 1000 nM	> 1000 nM	150 nM
